Data taken from US9963461B2, “Phillygenin ibuprofen ester, preparation method therefor, and application thereof” (priority 2014, dated 2018).

Assays:
[1] = tested on: rat toe swelling induced by carrageenan; assay: Rat toe swelling induced by carrageenan; type: in vivo, Wistar rats; conditions: 300 mg/kg sublingual intravenous injection
Experimental: The test groups were administered by sublingual intravenous injection. Before the test, capillary magnification measurement method was used to measure the normal volume of the right hind foot of the rats in each group. To avoid errors, the measurement location was fixed and the operation was made by one person both before and after the administration. The average value of the two measurements was taken as the normal volume of the right hind foot of the rats before administration. […] The difference between the groups was compared by inter-group t test processing through the difference percentage (swelling ratio) of the paw volume before and after the induced rat inflammation.

Adenovirus (AdV) = assay: Impact of the drugs on the virus-induced cytopathy (MTT); type: cell-based; conditions: ADV 100 TCID50, Vero cells, about the maximal non-cytotoxic concentration, 72 hours
[2] = tested on: rabbit fever induced by typhoid and paratyphoid vaccine; assay: Rabbit fever induced by typhoid and paratyphoid vaccine; type: in vivo, Japanese white rabbits; conditions: 300 mg/kg
Experimental: Japanese male big-ear white rabbits, weighing 1.5-2.0 kg. Before the test, WSC-411P portable digital thermometer was used to measure the normal rectal temperature twice (with certain interval for each time), and the average value was taken as the normal body temperature. Then 48 Japanese big-ear white rabbits with body temperature of 38-39.6° C. were selected and randomly divided into 8 groups by weight, namely: the blank control (normal saline) group, the model control (0.5% carboxymethylcellulose) group, the ibuprofen group (300 mg/kg), the phillygenin group (10 mg/kg), the 1.25, 2.5, and 5 mg/kg phillygenin ibuprofen ester groups and the positive drug paracetamol (50 mg/kg) group. The rabbits were fixed in a fixator. The blank control group was intravenously injected with normal saline of 1 ml/kg via the ear margin; The model control group and the drug groups were intravenously injected with typhoid and paratyphoid vaccines of 0.8 ml/kg via the ear margin. When the body temperature rise of the rabbits was greater than 1° C. (requiring about 1-1.5 h, which was restricted to 1 h in this test), the blank control group and the model group were administered intragastrically with 0.5% carboxymethycellulose of 1 ml/kg, and the drug groups were administered intragastrically with phillygenin ibuprofen ester and paracetamol. […]

[3] = tested on: beer yeast induced rat fever; assay: Beer yeast induced rat fever; type: in vivo, Wistar rats; conditions: 300 mg/kg
Experimental: Male Wistar rats were selected, weighing 180-200 g. Before the test, WSC-411P portable digital thermometer was used to measure the normal rectal temperature twice (with certain interval for each time), and the average value of the two measurements was taken as the normal body temperature of the rat. Then 70 rats with the body temperature between 36.5° C. and 38° C. were chosen to be randomly divided into 7 groups by weight: the model (0.5% carboxymethylcellulose) group, the 2.5, 5, and 10 mg/kg phillygenin ibuprofen ester groups, the positive drug paracetamol (100 mg/kg) group, the ibuprofen group (i.e. prodrug control group, 300 mg/kg), the phillygenin group (100 mg/kg), with 10 rats for each group. Each group of rats were subjected to back subcutaneous injection with 10% fresh beer yeast suspension of 10 ml/kg to induce heat. After administration of 10% fresh beer yeast suspension for 6.0 h, phillygenin ibuprofen ester and paracetamol were both subjected to intragastric administration, and the model group was intragastrically administrated with equal volume of 0.5% carboxymethylcellulose. Rectal temperature was measured after 1 h, 2 h, 3 h and 4 h of the administration respectively. Changes in the body temperature were observed and difference between the groups was compared by inter-group t test processing through antipyretic percentage.

[4] = time after administration (min) 30
[5] = time after administration (min) 60
[6] = time after administration (min) 90
[7] = time after administration (min) 120
[8] = time after administration (min) 180

For `CC(C)Cc1ccc(C(C)C(=O)O)cc1` (centres unmarked) [Ibuprofen], the “Swelling ratio (%)” value ([1]; 30 min) was 0.110 ± 0.119 %, the “Swelling ratio (%)” value ([1]; 60 min) was 0.151 ± 0.172 % and the “Swelling ratio (%)” value ([1]; 120 min) was 0.210 ± 0.178 %. For the same compound, the “Swelling ratio (%)” value ([1]; 180 min) was 0.330 ± 0.337 %, the “Swelling ratio (%)” value ([1]; 240 min) was 0.4600 ± 0.289 % and the “Swelling ratio (%)” value ([1]; 300 min) was 0.681 ± 0.369%. The “Swelling ratio (%)” value ([1]; 360 min) was 0.623 ± 0.338 %, the “antiviral effective rate (ER %)” value (Adenovirus (AdV)) was 50.61% and the “Body temperature (° C.)” value [2, 4] was 40.74 ± 0.52 °C. The “antipyretic percentage (%)” value [2, 4] was −0.90 ± 0.41 %, the “Body temperature (° C.)” value [2, 5] was 40.56 ± 0.40 °C and the “antipyretic percentage (%)” value [2, 5] was −1.35 ± 0.11 %. The “Body temperature (° C.)” value [2, 6] was 40.07 ± 0.44 °C, the “antipyretic percentage (%)” value [2, 6] was −2.52 ± 0.13 % and the “Body temperature (° C.)” value [2, 7] was 39.88 ± 0.55 °C. For the same compound, the “antipyretic percentage (%)” value [2, 7] was −3.00 ± 0.23 %, the “Body temperature (° C.)” value [2, 8] was 39.77 ± 0.53 °C and the “antipyretic percentage (%)” value [2, 8] was −3.25 ± 0.29 %. The “Body temperature (° C.)” value ([3]; 1 h after administration) was 39.21 ± 0.11 °C, the “antipyretic percentage (%)” value ([3]; 1 h after administration) was −1.05 ± 0.54 % and the “Body temperature (° C.)” value ([3]; 2 h after administration) was 38.92 ± 0.35 °C. The “antipyretic percentage (%)” value ([3]; 2 h after administration) was −1.7 ± 0.77 %, the “Body temperature (° C.)” value ([3]; 3 h after administration) was 38.71 ± 0.20 °C and the “antipyretic percentage (%)” value ([3]; 3 h after administration) was −2.32 ± 1.41 %. The “Body temperature (° C.)” value ([3]; 4 h after administration) was 38.49 ± 0.51 °C and the “antipyretic percentage (%)” value ([3]; 4 h after administration) was −2.88 ± 1.50 %.
